Consider 13 compounds from patent publication US20240279240A1, “HETEROCYCLIC DERIVATIVES AS JANUS KINASE INHIBITORS” (CHIESI FARMACEUTICI S.P.A., priority 2021, published 2024).

The target of one test is JAK 2 (Homo sapiens, UniProt O60674). Nature of the test: Biochemical potency on JAK2, TR-FRET LANCE Ultra kinase assay (examples 1-99). Conditions: ATP at Km (0.7 μM), read-out: JAK2 inhibitory activity (pIC50 class) (converted). How it is done:
(§1) The objective of this study was to assess the capability of compounds to inhibit all 4 JAK isoforms activity in a cell-free environment. Assay for JAK 1, JAK 2, JAK 3 and TYK2 were performed by Time-resolved fluorescence resonance energy transfer (TR-FRET) technology. It consists in the interaction of two labelled binding partners detected by the energy transfer from an excited donor to an acceptor dye and measurement of light emission by the acceptor dye. LANCE Ultra kinase assay was used. In presence of JAK 1, JAK 2, JAK 3 and TYK2 kinases and ATP (corresponding to Km), the ULight peptide substrate (LANCE Ulight-JAK-1 (Tyr1023) Peptide, Perkin Elmer, TRF0121) is phosphorylated. It is then captured by Eu-anti-phospho-substrate antibody (LANCE Eu-W1024 Anti-phosphotyrosine (PT66), Perkin Elmer, AD0069), which bring the Eu-chelate donor and ULight acceptor dyes into close proximity. Upon excitation at 320 nm, the Eu-chelate transfers its energy to the ULight dye, resulting in a fluorescent light emission at 665 nm.
(§2) Serial dilutions of compounds in pure DMSO are prepared from 10 mM DMSO stock solutions. Compounds were tested in 384-well plate for 11 consecutive 5-fold dilutions starting from 20 μM highest concentration (20 μM-[…]). 200 nL of compound were transferred from mother plate to test plate by using Mosquito (TTP labtech). Assay was performed in 384-well Perkin Elmer test plate in 20 μL assay volume (kinase reaction) and 40 μL total volume (stopping reagent and antibody detection reagents). In 10 μL of substrate solution (peptide+ATP) 30/50/20/10 nM of peptide and 20/0.7/0.2/12 μM of ATP were added for JAK 1, JAK 2, JAK 3 and TYK2 respectively. 10 μL of enzyme solution was added to kinase reaction at these concentrations: 0.15/0.083/0.025/0.144 ng/μL of JAK 1, JAK 2, JAK 3 and TYK2 respectively. After shaking and 1.5 h of incubation at r.t., 20 μL of Stop (10 μL EDTA) and Detection mixture (10 μL Europium-anti-phospho antibody, final: 0.5 nM) were added. Reading was performed after 1 h of incubation on a EnVision 2104 reader (Perkin Elmer).
(§3) Calculation of IC50 data, curves and QC analysis was performed by using Excel tool and GraphPadPrism software, v9. Briefly, individual concentration-effect curves are generated by plotting the logarithm of the tested concentration of tested compounds (X) vs. corresponding percent inhibition values (Y) using least squares (ordinary) fit. Best fit IC50 values are calculated using Log(inhibitor) vs. normalized response—Variable slope equation, where Y=100/(1+10^((Log IC50−X)*HillSlope)). QC criteria parameters (Z′, S:B, R2, HillSlope) were checked for every IC50 curve. Calculation of IC50 data, curves and QC analysis were made using Excel tools and GraphPadPrism software. QC criteria parameters: Z′≥0.5, Hill Slope range 0.5 to 5, S:B>2.

The next test has as its target T1, JAK 3 (Homo sapiens, UniProt P52333).
T1 sequence (P52333 1-1124): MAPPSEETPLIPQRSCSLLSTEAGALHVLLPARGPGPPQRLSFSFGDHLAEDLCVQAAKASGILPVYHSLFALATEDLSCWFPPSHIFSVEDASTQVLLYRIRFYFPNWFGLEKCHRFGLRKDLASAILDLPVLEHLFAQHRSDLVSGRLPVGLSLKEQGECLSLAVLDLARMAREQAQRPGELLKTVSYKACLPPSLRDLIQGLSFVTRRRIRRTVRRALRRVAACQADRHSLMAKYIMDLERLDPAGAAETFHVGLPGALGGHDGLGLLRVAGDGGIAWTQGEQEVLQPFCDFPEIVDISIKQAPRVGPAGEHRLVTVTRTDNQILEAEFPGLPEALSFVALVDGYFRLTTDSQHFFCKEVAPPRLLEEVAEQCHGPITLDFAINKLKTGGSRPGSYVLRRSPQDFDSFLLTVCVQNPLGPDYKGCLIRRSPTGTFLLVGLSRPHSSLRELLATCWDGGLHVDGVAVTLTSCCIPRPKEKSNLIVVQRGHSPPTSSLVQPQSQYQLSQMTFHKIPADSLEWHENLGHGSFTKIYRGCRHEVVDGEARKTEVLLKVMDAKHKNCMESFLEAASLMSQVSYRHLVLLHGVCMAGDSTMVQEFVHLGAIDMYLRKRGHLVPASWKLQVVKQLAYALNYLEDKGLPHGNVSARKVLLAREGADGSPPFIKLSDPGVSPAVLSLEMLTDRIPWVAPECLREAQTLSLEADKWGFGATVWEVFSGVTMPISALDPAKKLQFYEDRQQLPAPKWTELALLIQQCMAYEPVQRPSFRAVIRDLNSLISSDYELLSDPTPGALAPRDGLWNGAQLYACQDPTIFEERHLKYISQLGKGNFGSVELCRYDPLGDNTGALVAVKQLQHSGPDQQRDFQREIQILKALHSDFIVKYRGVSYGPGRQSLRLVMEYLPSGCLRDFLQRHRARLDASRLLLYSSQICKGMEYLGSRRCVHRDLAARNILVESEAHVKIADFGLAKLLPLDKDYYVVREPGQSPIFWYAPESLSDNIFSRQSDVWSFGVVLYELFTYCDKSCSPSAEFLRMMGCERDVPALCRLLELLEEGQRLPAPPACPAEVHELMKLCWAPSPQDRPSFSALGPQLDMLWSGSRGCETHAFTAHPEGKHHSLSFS
Nature of the test: Biochemical potency on JAK3, TR-FRET LANCE Ultra kinase assay (examples 1-99). The note with it: ATP at Km (0.2 μM), read-out: JAK3 inhibitory activity (pIC50 class) (converted). How it is done:
as §1, §2, §3

The next test concerns the target JAK 1 (Homo sapiens, UniProt P23458). Nature of the test: Biochemical potency on JAK1, TR-FRET LANCE Ultra kinase assay (examples 1-99). The note with it: ATP at Km (20 μM), read-out: JAK1 inhibitory activity (pIC50 class) (converted). How it is done:
as §1, §2, §3
For orientation: In TR-FRET formats the signal depends on donor and acceptor labels being close together.

A further test has as its target TYK2 (Homo sapiens, UniProt P29597). Nature of the test: Biochemical potency on Tyk2, TR-FRET LANCE Ultra kinase assay (examples 1-99). The note with it: ATP at Km (12 μM), read-out: Tyk2 inhibitory activity (pIC50 class) (converted). How it is done:
as §1, §2, §3

The structures appear in SMILES notation.

Sequence of TYK2 (P29597 whole entry): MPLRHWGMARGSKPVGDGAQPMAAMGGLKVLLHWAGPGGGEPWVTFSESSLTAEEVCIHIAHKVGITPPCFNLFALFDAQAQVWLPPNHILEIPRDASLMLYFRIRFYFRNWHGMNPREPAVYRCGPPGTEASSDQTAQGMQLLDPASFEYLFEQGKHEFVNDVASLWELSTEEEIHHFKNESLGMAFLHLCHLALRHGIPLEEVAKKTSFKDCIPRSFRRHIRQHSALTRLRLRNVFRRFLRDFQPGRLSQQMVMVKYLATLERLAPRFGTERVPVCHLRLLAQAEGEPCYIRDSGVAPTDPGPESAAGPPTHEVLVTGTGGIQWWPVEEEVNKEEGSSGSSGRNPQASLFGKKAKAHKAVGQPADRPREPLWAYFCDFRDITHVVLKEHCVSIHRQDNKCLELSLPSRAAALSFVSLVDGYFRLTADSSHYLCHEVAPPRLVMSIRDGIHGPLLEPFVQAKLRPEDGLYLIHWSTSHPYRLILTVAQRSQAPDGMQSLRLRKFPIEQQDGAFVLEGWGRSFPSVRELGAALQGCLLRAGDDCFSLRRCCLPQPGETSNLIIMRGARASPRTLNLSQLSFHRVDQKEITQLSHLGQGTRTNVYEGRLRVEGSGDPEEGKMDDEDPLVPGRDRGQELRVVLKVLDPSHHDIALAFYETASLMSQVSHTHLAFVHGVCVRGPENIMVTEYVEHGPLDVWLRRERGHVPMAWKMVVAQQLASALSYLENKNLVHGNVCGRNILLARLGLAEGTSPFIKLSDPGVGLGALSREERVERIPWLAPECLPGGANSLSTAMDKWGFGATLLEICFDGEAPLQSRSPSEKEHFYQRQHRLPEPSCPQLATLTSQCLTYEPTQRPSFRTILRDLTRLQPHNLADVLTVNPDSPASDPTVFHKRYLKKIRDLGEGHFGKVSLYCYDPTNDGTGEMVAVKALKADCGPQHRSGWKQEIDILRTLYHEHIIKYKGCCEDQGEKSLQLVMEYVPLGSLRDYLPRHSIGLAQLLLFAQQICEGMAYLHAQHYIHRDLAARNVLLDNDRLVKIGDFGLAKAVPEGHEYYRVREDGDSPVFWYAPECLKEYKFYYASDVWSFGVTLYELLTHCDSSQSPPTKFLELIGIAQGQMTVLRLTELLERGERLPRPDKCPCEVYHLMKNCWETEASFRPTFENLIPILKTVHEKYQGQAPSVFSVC
Sequence of JAK 1 (P23458 whole entry): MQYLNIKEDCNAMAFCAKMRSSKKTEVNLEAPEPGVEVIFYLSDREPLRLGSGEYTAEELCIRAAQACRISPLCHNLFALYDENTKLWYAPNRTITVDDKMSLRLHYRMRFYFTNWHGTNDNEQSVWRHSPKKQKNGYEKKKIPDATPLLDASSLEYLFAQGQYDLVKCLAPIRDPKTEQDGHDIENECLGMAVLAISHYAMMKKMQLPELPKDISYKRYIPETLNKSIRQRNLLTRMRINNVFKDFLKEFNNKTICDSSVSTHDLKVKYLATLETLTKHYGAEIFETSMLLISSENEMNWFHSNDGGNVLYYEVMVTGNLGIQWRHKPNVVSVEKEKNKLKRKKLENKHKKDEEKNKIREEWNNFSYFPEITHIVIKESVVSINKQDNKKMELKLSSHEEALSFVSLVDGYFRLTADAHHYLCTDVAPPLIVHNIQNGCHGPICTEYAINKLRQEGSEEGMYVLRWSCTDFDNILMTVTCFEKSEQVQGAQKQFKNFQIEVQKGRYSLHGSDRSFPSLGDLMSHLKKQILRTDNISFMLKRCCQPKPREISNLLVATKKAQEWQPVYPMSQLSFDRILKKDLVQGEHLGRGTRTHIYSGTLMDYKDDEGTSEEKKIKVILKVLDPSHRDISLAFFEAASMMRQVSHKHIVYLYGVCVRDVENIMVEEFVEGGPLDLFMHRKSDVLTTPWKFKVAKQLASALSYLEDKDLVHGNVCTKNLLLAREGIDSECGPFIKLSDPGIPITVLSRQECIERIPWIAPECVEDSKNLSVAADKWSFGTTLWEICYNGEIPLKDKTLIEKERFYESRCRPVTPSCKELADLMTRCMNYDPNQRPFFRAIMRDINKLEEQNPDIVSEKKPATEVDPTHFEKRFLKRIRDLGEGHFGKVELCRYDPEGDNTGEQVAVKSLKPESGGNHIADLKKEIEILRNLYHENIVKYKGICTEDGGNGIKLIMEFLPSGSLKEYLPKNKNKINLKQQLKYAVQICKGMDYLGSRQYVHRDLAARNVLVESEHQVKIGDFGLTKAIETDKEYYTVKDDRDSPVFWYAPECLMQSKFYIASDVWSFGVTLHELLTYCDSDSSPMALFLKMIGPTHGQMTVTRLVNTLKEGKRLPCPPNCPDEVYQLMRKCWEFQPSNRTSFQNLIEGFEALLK
Sequence of JAK 2 (O60674 whole entry, canonical isoform): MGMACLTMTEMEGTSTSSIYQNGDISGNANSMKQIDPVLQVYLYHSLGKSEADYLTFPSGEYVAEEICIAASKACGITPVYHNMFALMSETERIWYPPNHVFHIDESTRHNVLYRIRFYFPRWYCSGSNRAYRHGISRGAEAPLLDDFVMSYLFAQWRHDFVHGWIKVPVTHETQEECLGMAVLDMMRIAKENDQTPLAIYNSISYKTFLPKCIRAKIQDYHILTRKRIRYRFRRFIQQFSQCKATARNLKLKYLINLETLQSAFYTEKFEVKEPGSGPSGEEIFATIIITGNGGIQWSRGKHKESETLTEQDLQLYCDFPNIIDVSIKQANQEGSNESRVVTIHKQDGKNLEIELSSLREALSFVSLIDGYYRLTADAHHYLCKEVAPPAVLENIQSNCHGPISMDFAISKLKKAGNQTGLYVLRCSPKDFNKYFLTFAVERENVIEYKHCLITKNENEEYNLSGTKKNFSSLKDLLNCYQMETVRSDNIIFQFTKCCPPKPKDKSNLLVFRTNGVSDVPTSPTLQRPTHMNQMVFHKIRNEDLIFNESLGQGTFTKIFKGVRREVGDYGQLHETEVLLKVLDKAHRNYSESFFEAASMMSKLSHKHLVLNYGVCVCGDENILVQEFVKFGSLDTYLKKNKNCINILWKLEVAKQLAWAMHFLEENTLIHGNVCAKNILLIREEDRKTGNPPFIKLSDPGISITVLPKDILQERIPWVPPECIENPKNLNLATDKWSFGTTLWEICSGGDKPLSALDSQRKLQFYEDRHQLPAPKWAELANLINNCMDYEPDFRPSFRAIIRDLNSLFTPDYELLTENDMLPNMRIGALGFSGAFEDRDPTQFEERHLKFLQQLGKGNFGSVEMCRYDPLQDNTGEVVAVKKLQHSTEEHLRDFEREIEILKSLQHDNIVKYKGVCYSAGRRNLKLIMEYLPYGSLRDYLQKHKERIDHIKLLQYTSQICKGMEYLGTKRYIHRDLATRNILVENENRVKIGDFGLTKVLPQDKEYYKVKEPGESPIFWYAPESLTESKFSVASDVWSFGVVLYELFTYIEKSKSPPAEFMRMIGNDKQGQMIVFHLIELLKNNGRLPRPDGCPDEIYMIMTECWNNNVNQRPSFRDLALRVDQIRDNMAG

On to `CNCc1nn(-c2cc(S(C)(=O)=O)ccc2OC)c2cc(-c3cnn4cccnc34)ncc12` [Example 89, 1-(1-(2-Methoxy-5-(methylsulfonyl)phenyl)-6-(pyrazolo[1,5-a]pyrimidin-3-yl)-1H-pyrazolo[4,3-c]pyridin-3-yl)-N-methylmethanamine], for which the IC50 at JAK 2 is 5.01 to 50.1 nM; at JAK 3, over 50.1 nM; on JAK 1 it was 5.01 to 50.1 nM; on TYK2, over 50.1 nM.

As for `COc1ccc(NS(C)(=O)=O)cc1-n1nc(NCCN(C)C)c2cnc(-c3cnn4cccnc34)cc21` [Example 86, N-(3-(3-((2-(dimethylamino)ethyl)amino)-6-(pyrazolo[1,5-a]pyrimidin-3-yl)-1H-pyrazolo[4,3-c]pyridin-1-yl)-4-methoxyphenyl)methanesulfonamide], the IC50 is 5.01 to 50.1 nM at JAK 2, 5.01 to 50.1 nM at JAK 3, over 50.1 nM at JAK 1 and over 50.1 nM on TYK2.

As for `Cc1nn(-c2cc(S(C)(=O)=O)ccc2OC(F)F)c2cc(Nc3ncc[nH]c3=O)ncc12` [Example 94, 3-((1-(2-(difluoromethoxy)-5-(methylsulfonyl)phenyl)-3-methyl-1H-pyrazolo[4,3-c]pyridin-6-yl)amino)pyrazin-2(1H)-one], the IC50 on JAK 2 is at most 5.01 nM; on JAK 3 it was at most 5.01 nM; at JAK 1, at most 5.01 nM; on TYK2, 5.01 to 50.1 nM.

Consider `OCc1nn(-c2cc(Cl)ccc2OC(F)F)c2cc(-c3cnn4cccnc34)ncc12` [Example 29, (1-(5-chloro-2-(difluoromethoxy)phenyl)-6-(pyrazolo[1,5-a]pyrimidin-3-yl)-1H-pyrazolo[4,3-c]pyridin-3-yl)methanol], for which the IC50 on JAK 2 was at most 5.01 nM; at JAK 3 it was at most 5.01 nM; at JAK 1, 5.01 to 50.1 nM; on TYK2 it was 5.01 to 50.1 nM.

Regarding `CN(C)Cc1nn(-c2cc(Cl)ccc2OC(F)F)c2cc(-c3cnn4cccnc34)ncc12` [Example 30, 1-(1-(5-chloro-2-(difluoromethoxy)phenyl)-6-(pyrazolo[1,5-a]pyrimidin-3-yl)-1H-pyrazolo[4,3-c]pyridin-3-yl)-N,N-dimethylmethanamine], the IC50 at JAK 2 is 5.01 to 50.1 nM; on JAK 3, 5.01 to 50.1 nM; at JAK 1, 5.01 to 50.1 nM; at TYK2, over 50.1 nM.

On to `NC1CN(Cc2nn(-c3cc(Cl)ccc3OC(F)F)c3cc(-c4cnn5cccnc45)ncc23)C1` [Example 76, 1-((1-(5-chloro-2-(difluoromethoxy)phenyl)-6-(pyrazolo[1,5-a]pyrimidin-3-yl)-1H-pyrazolo[4,3-c]pyridin-3-yl)methyl)azetidin-3-amine], for which the IC50 on JAK 2 was 5.01 to 50.1 nM; on JAK 3, 5.01 to 50.1 nM; on JAK 1 it was 5.01 to 50.1 nM; on TYK2 it was over 50.1 nM.

`COc1cnc(Cl)cc1-n1nc(C)c2cnc(-c3cnn4cccnc34)cc21` [Example 61, 1-(2-chloro-5-methoxypyridin-4-yl)-3-methyl-6-(pyrazolo[1,5-a]pyrimidin-3-yl)-1H-pyrazolo[4,3-c]pyridine]: the IC50 was 5.01 to 50.1 nM on JAK 2, 5.01 to 50.1 nM at JAK 3, 5.01 to 50.1 nM at JAK 1 and over 50.1 nM at TYK2.

As to `COCCS(=O)(=O)c1ccc(OC(F)F)c(-n2nc(C)c3cnc(-c4cnn5cccnc45)cc32)c1` [Example 20, 1-(2-(difluoromethoxy)-5-((2-methoxyethyl)sulfonyl)phenyl)-3-methyl-6-(pyrazolo[1,5-a]pyrimidin-3-yl)-1H-pyrazolo[4,3-c]pyridine], the IC50 is at most 5.01 nM at JAK 2, at most 5.01 nM on JAK 3, 5.01 to 50.1 nM at JAK 1 and 5.01 to 50.1 nM at TYK2.

On to `COc1ccc(C(F)F)cc1-n1nc(C)c2cnc(Nc3ncc[nH]c3=O)cc21` [Example 91, 3-((1-(5-(difluoromethyl)-2-methoxyphenyl)-3-methyl-1H-pyrazolo[4,3-c]pyridin-6-yl)amino)pyrazin-2(1H)-one], for which the IC50 on JAK 2 was at most 5.01 nM; on JAK 3, at most 5.01 nM; on JAK 1, 5.01 to 50.1 nM; on TYK2, 5.01 to 50.1 nM.

For `COc1ccc(S(=O)(=O)NCCCN2CCN(C)CC2)cc1-n1nc(C)c2cnc(-c3cnn4cccnc34)cc21` [Example 16, 4-methoxy-3-(3-methyl-6-(pyrazolo[1,5-a]pyrimidin-3-yl)-1H-pyrazolo[4,3-c]pyridin-1-yl)-N-(3-(4-methylpiperazin-1-yl)propyl)benzenesulfonamide], the IC50 is 5.01 to 50.1 nM on JAK 2, over 50.1 nM at JAK 3, over 50.1 nM on JAK 1 and over 50.1 nM on TYK2.

With `CNCc1nn(-c2cc(Cl)ccc2OC(F)F)c2cc(-c3cnn4cccnc34)ncc12` [Example 31, 1-(1-(5-chloro-2-(difluoromethoxy)phenyl)-6-(pyrazolo[1,5-a]pyrimidin-3-yl)-1H-pyrazolo[4,3-c]pyridin-3-yl)-N-methylmethanamine], the IC50 at JAK 2 is 5.01 to 50.1 nM; at JAK 3, 5.01 to 50.1 nM; at JAK 1 it was 5.01 to 50.1 nM; at TYK2, over 50.1 nM.

For `COc1ccc(Cl)cc1-n1ncc2c(N)nc(-c3cnn4cccnc34)cc21` [Example 56, 1-(5-chloro-2-methoxyphenyl)-6-(pyrazolo[1,5-a]pyrimidin-3-yl)-1H-pyrazolo[4,3-c]pyridin-4-amine], the IC50 on JAK 2, on JAK 3, on JAK 1 and on TYK2 was 5.01 to 50.1 nM in each case.

Consider `Cc1nn(-c2cc(SC3COC3)ccc2OC(F)F)c2cc(-c3cnn4cccnc34)ncc12` [Example 73, 1-(2-(difluoromethoxy)-5-(oxetan-3-ylthio)phenyl)-3-methyl-6-(pyrazolo[1,5-a]pyrimidin-3-yl)-1H-pyrazolo[4,3-c]pyridine], for which the IC50 on JAK 2 is at most 5.01 nM; on JAK 3 it was at most 5.01 nM; at JAK 1, at most 5.01 nM; at TYK2 it was 5.01 to 50.1 nM.
